Assay results from ChEMBL document CHEMBL5614418, “Discovery of novel dihydropyrrolidone-thiadiazole compound crosstalk between the YycG/F two-component regulatory pathway and cell membrane homeostasis to combat methicillin-resistant Staphylococcus aureus” (Eur J Med Chem, 2024).
≈ marks a conversion by molar mass, not a printed value. Calls of active or inactive are those of the source. No cut-off for these calls is given here.

Assays:
[1] = system: Staphylococcus epidermidis; test: Antibacterial activity against Staphylococcus epidermidis SE1457 by broth microdilution method; type: functional
[2] = system: Enterococcus faecium; test: Antibacterial activity against Enterococcus faecium EFM64 by broth microdilution method; type: functional
[3] = system: Staphylococcus aureus; test: Bactericidal activity against Staphylococcus aureus SA113; type: functional
[4] = system: Enterococcus faecalis; test: Bactericidal activity against Enterococcus faecalis OG1RF; type: functional
[5] = system: Pseudomonas aeruginosa; test: Antibacterial activity against Pseudomonas aeruginosa; type: functional, organism-based
[6] = system: Klebsiella pneumoniae; test: Antibacterial activity against Klebsiella pneumoniae; type: functional, organism-based
[7] = system: Staphylococcus epidermidis; test: Inhibition of bacterial growth in Staphylococcus epidermidis SE1457 at 1/2 MIC concentration measured upto 16 hrs; type: functional, organism-based
[8] = system: Staphylococcus aureus; test: Inhibition of bacterial growth in methicillin sensitive Staphylococcus aureus SA113 at 1/2 MIC concentration measured upto 16 hrs; type: functional, organism-based
[9] = system: Staphylococcus epidermidis; test: Synergistic antibacterial activity against Staphylococcus epidermidis SE1457 in presence of linezolid; type: functional, organism-based
[10] = system: Staphylococcus epidermidis; test: Synergistic antibacterial activity against Staphylococcus epidermidis SE1457 assessed as fold increase in MIC in presence of daptomycin; type: functional
[11] = system: Staphylococcus epidermidis; test: Synergistic antibacterial activity against Staphylococcus epidermidis SE1457 assessed as fractional inhibitory concentration index in presence of daptomycin; type: functional
[12] = system: Staphylococcus epidermidis; test: Bactericidal activity against Staphylococcus epidermidis SE1457 assessed as planktonic cells killing by measuring log reduction in bacterial count at 2 to 8 times MIC measured after 24 hrs; type: functional
[13] = system: Staphylococcus aureus; test: Bactericidal activity against methicillin resistant Staphylococcus aureus USA300 assessed as planktonic cells killing by measuring log reduction in bacterial count at 2 to 8 times MIC measured after 24 hrs; type: functional
[14] = system: Staphylococcus aureus; test: Synergistic bactericidal activity against Staphylococcus aureus USA300 assessed as planktonic cells killing by measuring log reduction in bacterial count at 8 times MIC measured after 24 hrs in presence of daptomycin; type: functional
[15] = system: Staphylococcus aureus; test: Antibacterial activity against methicillin resistant Staphylococcus aureus USA300 by broth microdilution method; type: functional
[16] = system: Staphylococcus epidermidis; test: Induction of matured biofilm eradication in Staphylococcus epidermidis SE1457 assessed as log reduction in bacterial count in biofilm at 8 times MIC incubated for 48 hrs by agar plate method; type: functional
[17] = system: Staphylococcus epidermidis; test: Induction of matured biofilm eradication in Staphylococcus epidermidis SE1457 assessed as reduction in bacterial survival in biofilm at 8 times MIC incubated for 48 hrs by SYTO 9 staining based confocal fluorescence microscopic analysis; type: functional
[18] = system: Staphylococcus epidermidis; test: Induction of matured biofilm eradication in Staphylococcus epidermidis SE1457 assessed as reduction in bacterial survival in biofilm at 8 times MIC incubated for 48 hrs in presence of daptomycin by SYTO 9 staining based confocal fluorescence microscopic analysis; type: functional
[19] = system: Staphylococcus aureus; test: Induction of matured biofilm eradication in methicillin resistant Staphylococcus aureus YUSA145 assessed as reduction in bacterial survival in biofilm at 8 times MIC incubated for 48 hrs by SYTO 9 staining based confocal fluorescence microscopic analysis; type: functional
[20] = system: Staphylococcus aureus; test: Induction of matured biofilm eradication in methicillin resistant Staphylococcus aureus YUSA145 assessed as reduction in bacterial survival in biofilm at 8 times MIC incubated for 48 hrs in presence of daptomycin by SYTO 9 staining based confocal fluorescence microscopic analysis; type: functional
[21] = system: Staphylococcus aureus; test: Induction of matured biofilm eradication in methicillin resistant Staphylococcus aureus YUSA145 assessed as log reduction in bacterial count in biofilm at 8 MIC incubated for 48 hrs by agar plate method; type: functional
[22] = system: Staphylococcus aureus; test: Downregulation of arcC1 expression level in methicillin sensitive Staphylococcus aureus SA113 at 1/2 MIC incubated for 2 hrs by MS/MS analysis; type: functional
[23] = system: Staphylococcus aureus; test: Downregulation of pflB expression level in methicillin sensitive Staphylococcus aureus SA113 at 1/2 MIC incubated for 2 hrs by MS/MS analysis; type: functional
[24] = system: Staphylococcus aureus; test: Downregulation of intracellular ATP level in methicillin sensitive Staphylococcus aureus SA113 at 1 to 4 times MIC incubated for 30 mins; type: functional, cell-based
[25] = system: Staphylococcus aureus; test: Downregulation of acetyl-CoA level in methicillin sensitive Staphylococcus aureus SA113 at 1/2 MIC incubated for 30 mins; type: functional
[26] = system: Staphylococcus aureus; test: Downregulation of fructosre-1, 6-diphosphate level in methicillin sensitive Staphylococcus aureus SA113 at 1/2 MIC incubated for 30 mins; type: functional
[27] = system: Staphylococcus aureus; test: Downregulation of arcC1 gene expression level in methicillin sensitive Staphylococcus aureus SA113 at 1/2 MIC by RT-qPCR analysis; type: functional
[28] = system: Staphylococcus aureus; test: Downregulation of arcC2 gene expression level in methicillin sensitive Staphylococcus aureus SA113 at 1/2 MIC by RT-qPCR analysis; type: functional
[29] = system: Staphylococcus aureus; test: Downregulation of pflA gene expression level in methicillin sensitive Staphylococcus aureus SA113 at 1/2 MIC by RT-qPCR analysis; type: functional
[30] = system: Staphylococcus aureus; test: Downregulation of pflB gene expression level in methicillin sensitive Staphylococcus aureus SA113 at 1/2 MIC by RT-qPCR analysis; type: functional
[31] = system: Staphylococcus aureus; test: Antibacterial activity against methicillin sensitive Staphylococcus aureus SA113 assessed as fold increase in MIC in presence of phosphatidyl ethanolamine by chequerboard microdilution assay; type: functional
[32] = system: Staphylococcus aureus; test: Antibacterial activity against methicillin sensitive Staphylococcus aureus SA113 in presence of palmitic acid; type: functional, organism-based
[33] = system: Cell membrane; test: Induction of cell membrane disruption in methicillin sensitive Staphylococcus aureus SA113 at 4 times MIC incubated for 2 hrs by TEM analysis; type: cell membranes
[34] = system: Staphylococcus aureus; test: Induction of resistance development in methicillin sensitive Staphylococcus aureus SA113 assessed as fold increase in MIC at 1/2 MIC incubated for 16 hrs after 20 serial passages; type: functional
[35] = system: Staphylococcus epidermidis; test: Antibacterial activity against Staphylococcus epidermidis SE1457 in presence of palmitic acid; type: functional, organism-based
[36] = system: Staphylococcus aureus; test: Antibacterial activity against methicillin resistant Staphylococcus aureus USA300 infected in BALB/c mouse pneumonia model assessed as log reduction in lung bacterial count at 20 mg/kg, ip administered every 12 hrs for 3 times and measured after 48 hrs; type: functional
[37] = system: Staphylococcus aureus; test: Antibacterial activity against methicillin resistant Staphylococcus aureus USA300 infected in BALB/c mouse wound model assessed as log reduction in wound bacterial load at 20 mg/kg, ip administered every 12 hrs for 3 times and measured after 48 hrs; type: functional
[38] = Toxicity in BALB/c mouse assessed as change in AST level at 50 mg/kg, ip measured after 1 to 3 days; type: organism-based; settings: in vivo, time 1-3 day
[39] = Toxicity in BALB/c mouse assessed as change in ALT level at 50 mg/kg, ip measured after 1 to 3 days; type: organism-based; settings: in vivo, time 1-3 day
[40] = Toxicity in BALB/c mouse assessed as change in CREA level at 50 mg/kg, ip measured after 1 to 3 days; type: organism-based; settings: in vivo, time 1-3 day
[41] = Toxicity in BALB/c mouse assessed as apparent tissue damage at 50 mg/kg, ip measured after 1 to 3 days; type: organism-based; settings: in vivo, time 1-3 day
[42] = system: Staphylococcus aureus; test: Antibacterial activity against methicillin sensitive Staphylococcus aureus CHS101; type: functional
[43] = system: Staphylococcus aureus; test: Antibacterial activity against methicillin resistant Staphylococcus aureus YUSA145; type: functional
[44] = system: Staphylococcus aureus; test: Antibacterial activity against methicillin resistant Staphylococcus aureus YUSA151; type: functional

O=C(C1=C(O)C(=O)N(c2nnc(SCc3ccccc3Cl)s2)C1c1ccccc1O)c1cc2ccccc2o1 (stereo unspecified)
MIC50 [1]: ≥ 50 µM | MIC90 [1]: ≥ 50 µM | MIC50 [2]: ≥ 50 µM | MIC90 [2]: ≥ 50 µM | MBC [3]: 25 µM (≈ 14.4 µg/mL) | MBC [4]: 100 µM (≈ 57.6 µg/mL) | Activity [5]: Active | Activity [6]: Active | growth inhibition (GI) [7]: Active | growth inhibition (GI) [8]: Active | Activity [9]: inactive | fold change (FC) [10]: 2 | fractional inhibitory concentration index (FICI) [11]: <=0.5 | log(activity) [12]: 2.7 | log(activity) [13]: 2.7 | log(activity) [14]: 4.5 | MIC [15]: 12.5 µM (≈ 7.2 µg/mL) | log(activity) [16]: 1 | Activity [17]: <50% | Activity [18]: >70% | Activity [19]: <50% | Activity [20]: >70% | log(activity) [21]: 1 | Activity [22]: Active | Activity [23]: Active | Activity [24]: Active | Activity [25]: Active | Activity [26]: Active | Activity [27]: Active | Activity [28]: Active | Activity [29]: Active | Activity [30]: Active | fold change (FC) [31]: 16 | Activity [32]: inactive | Activity [33]: Active | Activity [34]: inactive | Activity [35]: inactive | log(activity) [36]: 2 | log(activity) [37]: 1 | Activity [38]: Non-Toxic | Activity [39]: Non-Toxic | Activity [40]: Non-Toxic | Activity [41]: Non-Toxic | MIC [42]: 12.5 µM (≈ 7.2 µg/mL) | MIC [43]: 12.5 µM (≈ 7.2 µg/mL) | MIC [44]: 12.5 µM (≈ 7.2 µg/mL)
